From PubChem BioAssay AID2060506 (Molecular Pharmacology Branch, DTP, NCI, 2025)

Tested on: 598228-144-R-J1-PDC complex spheroid viability
Experiment: Anticancer human tumor 598228-144-R-J1-PDC patient-derived serous endometrial adenocarcinoma cell line growth inhibition [GQUAD]
Details: for IC50: curve of first compound; for viability, T/C: stronger effect = lower value
Description: DNA G-quadruplex Stabilizer Agents in Combinations in Complex Spheroids
A high-throughput screen of multi-cell type tumor spheroids was designed to identify active combinations of DNA G-quadruplex stabilizer agents and targeted small molecules. Complex spheroids include a stromal component modeled by human endothelial cells (HUVEC) and fibroblasts modeled by human mesenchymal stem cells (MSCs). The concentration ranges selected for each drug and investigational agent were based upon clinically achievable concentrations if the clinical Cmax of the agent was known.
Compounds. The drugs and investigational agents: pidnarulex (CX-5461; NSC782164), APTO-253 (NSC789042), BRACO-19 (NSC847499), peposertib (NSC802822), ceralasertib (NSC780249), elimusertib (NSC800525), camonsertib (NSC841442), AZD-1390 (NSC803789), olaparib (NSC753686), talazoparib (NSC767125), ART-558 (NSC835418), sotorasib (NSC818433), MRTX-1133 (NSC836407), SN-38 (NSC673596), topotecan (NSC609699), etoposide (NSC141540), doxorubicin (NSC123127), gemcitabine (NSC613327), 5-fluorouracil (NSC19893), paclitaxel (NSC125973), vemurafenib (NSC761431), panobinostat (NSC761190), R-306465 (JNJ-16241199; NSC773264), adavosertib (NSC754352), TP-3654 (NSC805149), carboplatin (NSC241240), KSQ-4279 (NSC840948), and staurosporine (NSC755774) were obtained from the National Cancer Institute (NCI) Developmental Therapeutics Program Chemical Repository (34). The FDA-approved anticancer drug set is available from the NCI Developmental Therapeutics Program. […] The stock solutions were prepared in dimethyl sulfoxide (DMSO, Sigma-Aldrich, St. Louis, MO, cat. D2650) at 800-fold the tested concentration and stored at -70 degrees C prior to their use. All drugs and investigational agents were tested over a range starting from a high concentration at or near the clinical Cmax and decreasing in half-log increments. If the clinical Cmax for an agent had not been determined, the highest concentration tested was 10 microM.
2.3 Cell Culture. All cells were maintained in an incubator at 37 degrees C and 5% CO2 with 95% humidity. The PDC lines were cultured according to standard operating procedures established by the NCI PDMR. All PDCs were thawed and cultured in Matrigel-coated flasks prepared with a working solution of 1X Ham's F-12 nutrient mix, without supplementation (Invitrogen, cat. 11765054), 100 U/mL penicillin-streptomycin (Invitrogen, cat. 15140122), and 2.5% Matrigel (Corning Inc., cat. 354248) for the first three passages. The 857933-349-R-J2-PDC line was cultured in 6C/Colon 1B media, which includes advanced DMEM/F-12 (Thermo Fisher Scientific, cat. 12634028), 10 mM HEPES (Thermo Fisher Scientific, cat. 15630080), 1X GlutaMAX supplement (Thermo Fisher Scientific, cat. 35050061), 0.1 mg/mL primocin (InvivoGen, cat. ant-pm-2), 10% defined fetal bovine serum, heat inactivated (HyClone Laboratories Inc., cat. SH30070.03HI), 50% L-WRN conditioned media (ATCC, cat. CRL-3276), 1.25 mM N-Acetyl-L-cysteine (Sigma-Aldrich, cat. A9165), 10 mM nicotinamide (Sigma-Aldrich, cat. N0636), 1X B-27 supplement (Thermo Fisher Scientific, cat. 17504044), 1X N-2 supplement (Thermo Fisher Scientific, cat. 17502048), 10 microM Y-27632 dihydrochloride (Tocris Bioscience, cat. 1254), and 50 ng/mL human EGF recombinant protein (Thermo Fisher Scientific, cat. PHG0311). The 485176-168-R4-J1-PDC line was cultured in Panc media, which includes all 6C/Colon 1B media components plus 100 ng/mL human FGF-10 (Thermo Fisher Scientific, cat. 100-26), 500 nM SB-431542 (Selleckchem, cat. S1067), and gastrin (Tocris, cat. 3006).
[…]
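Note: spheroids exposed to the agents for one week before reading.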
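Throughout, for viability, T/C: percent of vehicle DMSO control viability so 100% = untreated growth.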

## Nc1ccn(C2OC(CO)C(O)C2(F)F)c(=O)n1 (configuration not stated) + CN(C)c1ccc(Nc2c3ccc(NC(=O)CCN4CCCC4)cc3nc3cc(NC(=O)CCN4CCCC4)ccc23)cc1
Second compound 0.0316 µM
  IC50: < 31.6 nM
Second compound 0.1 µM
  IC50: < 31.6 nM
Second compound 0.316 µM
  IC50: 38.9 nM
Second compound 1 µM
  IC50: 75.5 nM
Second compound 3.16 µM
  IC50: 91.7 nM
Second compound 10 µM
  IC50: < 31.6 nM
Second compound 0.0316 µM, first compound 0.0316 µM
  viability, T/C: 49.8%
Second compound 0.0316 µM, first compound 0.1 µM
  viability, T/C: 42.5%
Second compound 0.0316 µM, first compound 0.316 µM
  viability, T/C: 39.4%
Second compound 0.0316 µM, first compound 1 µM
  viability, T/C: 36.3%
Second compound 0.0316 µM, first compound 3.16 µM
  viability, T/C: 39.8%
Second compound 0.0316 µM, first compound 10 µM
  viability, T/C: 37.5%
Second compound 0.1 µM, first compound 0.0316 µM
  viability, T/C: 52.4%
Second compound 0.1 µM, first compound 0.1 µM
  viability, T/C: 41.9%
Second compound 0.1 µM, first compound 0.316 µM
  viability, T/C: 38.6%
Second compound 0.1 µM, first compound 1 µM
  viability, T/C: 43.2%
Second compound 0.1 µM, first compound 3.16 µM
  viability, T/C: 57.3%
Second compound 0.1 µM, first compound 10 µM
  viability, T/C: 49.5%
Second compound 0.316 µM, first compound 0.0316 µM
  viability, T/C: 49.3%
Second compound 0.316 µM, first compound 0.1 µM
  viability, T/C: 51.6%
Second compound 0.316 µM, first compound 0.316 µM
  viability, T/C: 43.3%
Second compound 0.316 µM, first compound 1 µM
  viability, T/C: 43.2%
Second compound 0.316 µM, first compound 3.16 µM
  viability, T/C: 45.8%
Second compound 0.316 µM, first compound 10 µM
  viability, T/C: 43.6%
Second compound 1 µM, first compound 0.0316 µM
  viability, T/C: 60.8%
Second compound 1 µM, first compound 0.1 µM
  viability, T/C: 51.3%
Second compound 1 µM, first compound 0.316 µM
  viability, T/C: 35.4%
Second compound 1 µM, first compound 1 µM
  viability, T/C: 33.1%
Second compound 1 µM, first compound 3.16 µM
  viability, T/C: 41.5%
Second compound 1 µM, first compound 10 µM
  viability, T/C: 43.4%
Second compound 3.16 µM, first compound 0.0316 µM
  viability, T/C: 58.8%
Second compound 3.16 µM, first compound 0.1 µM
  viability, T/C: 45.5%
Second compound 3.16 µM, first compound 0.316 µM
  viability, T/C: 49.7%
Second compound 3.16 µM, first compound 1 µM
  viability, T/C: 37.5%
Second compound 3.16 µM, first compound 3.16 µM
  viability, T/C: 45.6%
Second compound 3.16 µM, first compound 10 µM
  viability, T/C: 36.4%
Second compound 10 µM, first compound 0.0316 µM
  viability, T/C: 44.1%
Second compound 10 µM, first compound 0.1 µM
  viability, T/C: 28.5%
Second compound 10 µM, first compound 0.316 µM
  viability, T/C: 29.6%
Second compound 10 µM, first compound 1 µM
  viability, T/C: 26.2%
Second compound 10 µM, first compound 3.16 µM
  viability, T/C: 24%
Second compound 10 µM, first compound 10 µM
  viability, T/C: 26.9%
